{"source": "patent US20020128311A1", "about": "“Halocyanoacetamide antimicrobial compositions” (priority 2000, published 2002)", "key": {"[1]": {"assay": "Stability of DCOIT and DBNPA mixtures in GTA, stored at 40° C., HPLC", "assay_type": "physicochemical", "details": "4% DCOIT, […]% DBNPA", "method": "[…] […] Surfactants were TweenTM 20, TritonTM DF-12 or TritonTM CF-10. These compositions were stored at 40° C. for 6 weeks and the concentrations of active ingredients ([…]) in the compositions were determined by HPLC at the indicated time intervals."}, "[2]": {"assay": "Freeze/thaw stability of DCOIT/DBNPA/surfactant/GTA compositions, HPLC", "assay_type": "physicochemical", "details": "for % DCOIT retained after Freezing and Thawing: thawed at 25° C. 5 hours, three times", "method": "Samples were prepared to test the freeze/thaw stability of compositions of the present invention. The freeze/thaw test was conducted for compositions of […], surfactant and GTA prepared in Example 4. Samples (20 g each) were stored at -10° C. or -25° C. for 19 hours to be frozen; samples were then stored at 25° C. for 5 hours to be thawed. This sequence was repeated three times. Then the concentrations of active ingredients ([…]) in the compositions were determined by HPLC."}, "[3]": {"assay": "Solubility in glyceryl triacetate", "details": "based on total amount of compound and solvent"}, "[4]": {"assay": "Stability of CMIT and DBNPA mixtures in GTA, stored at 50° C., HPLC", "assay_type": "physicochemical", "details": "[…]% DBNPA, […]% CMIT/MIT mixture", "method": "Surfactants were TweenTM 20, TritonTM DF-12 or TritonTM CF-10. The compositions were stored at 50° C. for 4 weeks and the concentrations of active ingredients ([…]) in the compositions were determined by HPLC at the indicated time intervals."}}}
{"compound": "CCCCCCCCn1sc(Cl)c(Cl)c1=O", "note": "[DCOIT]", "values": [{"measurement": "% DCOIT retained", "setting": "[1]; 5% Triton CF-10, 66% GTA, 4 Weeks", "value": 96.0, "unit": "%"}, {"measurement": "% DCOIT retained", "setting": "[1]; 5% Triton CF-10, 66% GTA, 6 Weeks", "value": 95.6, "unit": "%"}, {"measurement": "% DCOIT retained", "setting": "[1]; 5% Triton CF-10, 66% GTA, Time 0", "value": 100.0, "unit": "%"}, {"measurement": "% DCOIT retained", "setting": "[1]; 5% Triton DF-12, 66% GTA, 4 Weeks", "value": 100.0, "unit": "%"}, {"measurement": "% DCOIT retained", "setting": "[1]; 5% Triton DF-12, 66% GTA, 6 Weeks", "value": 98.2, "unit": "%"}, {"measurement": "% DCOIT retained", "setting": "[1]; 5% Triton DF-12, 66% GTA, Time 0", "value": 100.0, "unit": "%"}, {"measurement": "% DCOIT retained", "setting": "[1]; 5% Tween 20, 66% GTA, 4 Weeks", "value": 94.3, "unit": "%"}, {"measurement": "% DCOIT retained", "setting": "[1]; 5% Tween 20, 66% GTA, 6 Weeks", "value": 94.0, "unit": "%"}, {"measurement": "% DCOIT retained", "setting": "[1]; 5% Tween 20, 66% GTA, Time 0", "value": 100.0, "unit": "%"}, {"measurement": "% DCOIT retained after Freezing and Thawing", "setting": "[2]; Example 4 composition with Triton CF-10, frozen at −10° C. 19 hours", "value": 100.0, "unit": "%"}, {"measurement": "% DCOIT retained after Freezing and Thawing", "setting": "[2]; Example 4 composition with Triton CF-10, frozen at −25° C. 19 hours", "value": 100.0, "unit": "%"}, {"measurement": "% DCOIT retained after Freezing and Thawing", "setting": "[2]; Example 4 composition with Triton DF-12, frozen at −10° C. 19 hours", "value": 100.0, "unit": "%"}, {"measurement": "% DCOIT retained after Freezing and Thawing", "setting": "[2]; Example 4 composition with Triton DF-12, frozen at −25° C. 19 hours", "value": 100.0, "unit": "%"}, {"measurement": "% DCOIT retained after Freezing and Thawing", "setting": "[2]; Example 4 composition with Tween 20, frozen at −10° C. 19 hours", "value": 100.0, "unit": "%"}, {"measurement": "% DCOIT retained after Freezing and Thawing", "setting": "[2]; Example 4 composition with Tween 20, frozen at −25° C. 19 hours", "value": 100.0, "unit": "%"}, {"measurement": "physical stability (appearance) during freeze/thaw cycling", "setting": "[2]; in GTA solutions in the presence of surfactants", "value": "clear solution, no precipitation or phase separation observed"}, {"measurement": "solubility in glyceryl triacetate", "setting": "[3]; at 5° C.", "value": 8, "unit": "% by weight"}, {"measurement": "solubility in glyceryl triacetate", "setting": "[3]; at 25° C.", "value": 8, "unit": "% by weight"}, {"measurement": "solubility in glyceryl triacetate", "setting": "[3]; at 40° C.", "value": 20, "unit": "% by weight"}]}
{"compound": "Cn1sc(Cl)cc1=O", "note": "[CMIT, 5-chloro-2-methyl-3-isothiazolone]", "values": [{"measurement": "% CMIT retained", "setting": "[4]; 5% Triton CF-10, 45% GTA, 0 Time", "value": 100, "unit": "%"}, {"measurement": "% CMIT retained", "setting": "[4]; 5% Triton CF-10, 45% GTA, 1 Week", "value": 98, "unit": "%"}, {"measurement": "% CMIT retained", "setting": "[4]; 5% Triton CF-10, 45% GTA, 2 Weeks", "value": 96, "unit": "%"}, {"measurement": "% CMIT retained", "setting": "[4]; 5% Triton CF-10, 45% GTA, 3 Weeks", "value": 86, "unit": "%"}, {"measurement": "% CMIT retained", "setting": "[4]; 5% Triton CF-10, 45% GTA, 4 Weeks", "value": 84, "unit": "%"}, {"measurement": "% CMIT retained", "setting": "[4]; 5% Triton DF-12, 45% GTA, 0 Time", "value": 100, "unit": "%"}, {"measurement": "% CMIT retained", "setting": "[4]; 5% Triton DF-12, 45% GTA, 1 Week", "value": 100, "unit": "%"}, {"measurement": "% CMIT retained", "setting": "[4]; 5% Triton DF-12, 45% GTA, 2 Weeks", "value": 99, "unit": "%"}, {"measurement": "% CMIT retained", "setting": "[4]; 5% Triton DF-12, 45% GTA, 3 Weeks", "value": 87, "unit": "%"}, {"measurement": "% CMIT retained", "setting": "[4]; 5% Triton DF-12, 45% GTA, 4 Weeks", "value": 85, "unit": "%"}, {"measurement": "% CMIT retained", "setting": "[4]; 5% Tween 20, 45% GTA, 0 Time", "value": 100, "unit": "%"}, {"measurement": "% CMIT retained", "setting": "[4]; 5% Tween 20, 45% GTA, 1 Week", "value": 100, "unit": "%"}, {"measurement": "% CMIT retained", "setting": "[4]; 5% Tween 20, 45% GTA, 2 Weeks", "value": 80, "unit": "%"}, {"measurement": "% CMIT retained", "setting": "[4]; 5% Tween 20, 45% GTA, 3 Weeks", "value": 75, "unit": "%"}, {"measurement": "% CMIT retained", "setting": "[4]; 5% Tween 20, 45% GTA, 4 Weeks", "value": 74, "unit": "%"}, {"measurement": "% CMIT retained", "setting": "[4]; no surfactant, 50% GTA, 0 Time", "value": 100, "unit": "%"}, {"measurement": "% CMIT retained", "setting": "[4]; no surfactant, 50% GTA, 1 Week", "value": 102, "unit": "%"}, {"measurement": "% CMIT retained", "setting": "[4]; no surfactant, 50% GTA, 2 Weeks", "value": 97, "unit": "%"}, {"measurement": "% CMIT retained", "setting": "[4]; no surfactant, 50% GTA, 3 Weeks", "value": 90, "unit": "%"}, {"measurement": "% CMIT retained", "setting": "[4]; no surfactant, 50% GTA, 4 Weeks", "value": 88, "unit": "%"}]}
